Results on one compound are retold here after ChEMBL document CHEMBL1201862, “PubChem BioAssay data set” (2004).

Common to all, as to assay: NCI-60 cell line screen, 48 h
Test [1] concerns CAKI-1.
The test system of test [2] is CCRF-CEM.
The test system of test [3] is HCT-116.
The subject of test [4] is HCT-15.
The subject of test [5] is HL-60.
In test [6] the test system is HOP-62.
The subject of test [7] is IGROV-1.
The subject of test [8] is KM12.
The test system of test [9] is MOLT-4.
The test system of test [10] is OVCAR-3.
For test [11], the system named is RPMI-8226.
Test [12] concerns SF-268.
In test [13] the test system is SF-295.
Test [14] deals with SK-MEL-2.
The subject of test [15] is SK-MEL-5.
The test system of test [16] is SN12C.
Test [17] relates to SNB-19.
In test [18] the test system is SW-620.
In test [19] the test system is UACC-257.
Test [20] deals with UACC-62.

Molecules are shown by their SMILES.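 Compound exposure: 48 hours, 5 concentrations, 96-well plates. The concentration for 50% growth inhibition is given as GI50.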 Active and inactive are the calls of the source. Cut-off read from the data, not from the text of the source: active = GI50 up to about 1.1 µM and inactive = higher.

Consider `CC1(C)S[C@@H]2[C@H](NC(=O)CCC[C@@H](N)C(=O)O)C(=O)N2[C@H]1C(=O)O` [ADICILLIN], for which the GI50 in test [1] was > 50 µM (inactive); in test [2], > 50 µM (inactive); in test [3] it was > 50 µM (inactive); in test [4], over 50 µM; in test [5], > 50 µM (inactive); in test [6], > 50 µM (inactive). Also, the GI50 in test [7], in test [8], in test [9], in test [10], in [11] and in test [12] was > 50 µM (inactive) in each case. The GI50 in test [13] was > 50 µM (inactive); in test [14], > 50 µM (inactive); in test [15], > 15 µM (inactive); in test [16], > 50 µM (inactive); in [17], > 50 µM (inactive); in test [18] it was > 31.6 µM (inactive). In addition, the GI50 in test [19] and in [20] was > 50 µM (inactive) each time.
